The nature of the assay: LPO-CC Kamiya Bioscience kit anti-oxidant efficacy assay (methylene blue, optical density at 674 nm). It counts as biochemical. The settings on record: simple composition containing 1.0% by weight of active; compared with 1.0% vitamin E; FIG. 1; lower optical density at 674 nm = better efficacy.

From the text: Reaction processes in the kit used can be summarized as follows. Cumene hydroperoxide (CHO) is combined with an enzyme mixture of ascorbic oxidase and lipoprotein lipase in order to produce lipid peroxide. Samples and standards are then combined with a second reagent containing methyl carbamate (MCDP) and hemoglobin. In the presence of hemoglobin, lipid peroxides are converted to lipid alcohols which in turn convert the MCDP to methylene blue that can be read at 674 nm. This translates to decreased color intensity which is measured by spectroscopy at 674 nm. […] In other words, the lower the optical density reading the better the anti-oxidant efficacy.

Turning to `O=c1c(O)c(-c2ccc(O)cc2O)oc2cc(O)cc(O)c12` [morin, 2′,3,4′,5,7-pentahydroxyflavone], the anti-oxidative efficacy entry was “anti-oxidative efficacy as good as positive control vitamin E”.

(Values after patent publication US20070092454A1, “Oral composition containing morin” (Colgate-Palmolive Company, priority 2005, published 2007).)
